Patent US20230201144A1, “BIARYLSULFONAMIDES AND PHARMACEUTICAL COMPOSITIONS THEREOF, AND THEIR USE FOR TREATING FIBROTIC LUNG DISEASE” (NovoMedix, LLC, priority 2020, published 2023)
“And” between values parts separate entries of the source, which are not always exact repeats. Equal values may be shown once.

System: Alpha smooth muscle actin (α-SMA) levels
Assay: α-SMA levels by Western blot in TGF-β-treated normal human lung fibroblasts (headed Cell Proliferation Assay)
Assay type: cell-based
Settings: 10 ng/mL TGF-β, 24 h; for Relative α-SMA 5 μM / Relative α-SMA 20 μM: Table 4; for Relative α-SMA 5 μM: compound 5 μM; for Relative α-SMA 20 μM: compound 20 μM
Experimental: Normal human lung fibroblasts were plated in a 6-well plate at 100,000 cells per well in 1 mL of DMEM supplemented with 10% FBS. The cells were incubated overnight at 37° C. under 5% CO2. The next day, the cells were serum starved (medium was removed and 1 mL of fresh DMEM without serum was added). The cells were incubated overnight.
The cells were treated with a test compound in DMEM, 5% FBS in the presence of 10 ng/mL TGF-β and incubated for 24 h. The cells were lysed with an M-PER buffer. Alpha smooth muscle actin (α-SMA) levels were determined by Western blot and normalized to 0-tubulin levels using cell signaling antibodies. Blots were probed with secondary antibodies from LI-COR® Biosciences and read using a scanner from LI-COR® Biosciences. Quantification was also done using a software from LI-COR® Biosciences. The results are shown in Tables 1 to 4 below, where the control (Ctrl) is the fibroblasts in the absence of TGF-β and a test compound.

[1] = single agent 5 μM, TGF-β alone = 1 (Tables 1-3)
[2] = single agent 10 μM, TGF-β alone = 1
[3] = single agent 20 μM, TGF-β alone = 1 (Tables 1-3)

Compound | Relative α-SMA 5 μM | Relative α-SMA 20 μM | also measured
CC(=O)Nc1cc(NS(=O)(=O)c2c(C(C)C)cc(C(C)C)cc2C(C)C)cc(C(F)(F)F)c1 [A7, N-(3-(Trifluoromethyl)-5-((2,4,6-triisopropylphenyl)sulfonamido)phenyl)-acetamide] | 1.60 | 0.33 | 
CC(C)c1cc(C(C)C)c(S(=O)(=O)Nc2cc(N)cc(C(F)(F)F)c2)c(C(C)C)c1 [A6, N-(3-Amino-5-(trifluoromethyl)phenyl)-2,4,6-triisopropylbenzenesulfonamide] | 1.08 | 0.05 | 
Cc1cc(C(C)(C)C)cc(C)c1S(=O)(=O)Nc1cc(O)cc(C(F)(F)F)c1 [A18, 4-(Tert-butyl)-N-(3-hydroxy-5-(trifluoromethyl)phenyl)-2,6-dimethylbenzenesulfonamide] | 0.57 | 0.28 | Relative α-SMA [1]: 1.26; Relative α-SMA [2]: 0.86; Relative α-SMA [3]: 0.06
COC(=O)c1ccc2c(c1)NC(=O)/C2=C(\Nc1ccc(N(C)C(=O)CN2CCN(C)CC2)cc1)c1ccccc1 [N, nintedanib, reference compound] |  |  | Relative α-SMA [1]: 0.82 and 0.92 and 0.97
Cc1cc(NS(=O)(=O)c2c(C(C)C)cc(C(C)C)cc2C(C)C)cc(C(F)(F)F)c1 [A1, 2,4,6-Triisopropyl-N-(3-methyl-5-(trifluoromethyl)phenyl)benzenesulfonamide] | 0.98 | 0.37 | 
Cc1cc(C(C)(C)C)cc(C)c1S(=O)(=O)Nc1cc(CCCN(C)C)cc(C(F)(F)F)c1 [A13, 4-(Tert-butyl)-N-(3-(3-(dimethylamino)propyl)-5-(trifluoromethyl)phenyl)-2,6-dimethylbenzenesulfonamide] | 0.29 |  | 
Cc1c(Br)cc(C(F)(F)F)cc1NS(=O)(=O)c1c(C(C)C)cc(C(C)C)cc1C(C)C [A21, N-(3-Bromo-2-methyl-5-(trifluoromethyl)phenyl)-2,4,6-triisopropylbenzenesulfonamide] | 0.45 |  | 
Cc1cc(C(C)(C)C)cc(C)c1S(=O)(=O)Nc1cc(OCCCCN)cc(C(F)(F)F)c1 [A10, N-(3-(4-Aminobutoxy)-5-(trifluoromethyl)phenyl)-4-(tert-butyl)-2,6-dimethylbenzenesulfonamide] | 0.69 |  | 
COc1cc(NS(=O)(=O)c2c(C(C)C)cc(C(C)C)cc2C(C)C)c(C)c(C(F)(F)F)c1 [A19, 2,4,6-Triisopropyl-N-(5-methoxy-2-methyl-3-(trifluoromethyl)phenyl)-benzenesulfonamide] | 0.56 |  | 
COC(=O)c1cc(NS(=O)(=O)c2c(C(C)C)cc(C(C)C)cc2C(C)C)cc(C(F)(F)F)c1 [A2, Methyl 3-(trifluoromethyl)-5-((2,4,6-triisopropylphenyl)sulfonamido)benzoate] | 1.05 | 0.23 | 
Cc1cc(C(C)(C)C)cc(C)c1S(=O)(=O)Nc1cc(Br)cc(C(F)(F)F)c1 [A16, N-(3-Bromo-5-(trifluoromethyl)phenyl)-4-(tert-butyl)-2,6-dimethylbenzenesulfonamide] | 0.35 |  | 
Cc1cc(C(C)(C)C)cc(C)c1S(=O)(=O)Nc1cc(C(F)(F)F)cc(C(F)(F)F)c1 [B5, N-(3,5-bis(trifluoromethyl)phenyl)-4-(tert-butyl)-2,6-dimethylbenzene-sulfonamide] |  |  | Relative α-SMA [1]: 0.91; Relative α-SMA [2]: 0.75; Relative α-SMA [3]: 0.24
CCCCNC(=O)c1cc(NS(=O)(=O)c2c(C(C)C)cc(C(C)C)cc2C(C)C)cc(C(F)(F)F)c1 [A4, N-Butyl-3-(trifluoromethyl)-5-((2,4,6-triisopropylphenyl)sulfonamido)benzamide] | 1.30 | 0.46 | 
CC(C)c1cc(C(C)C)c(S(=O)(=O)Nc2cc(OCCCCN)cc(C(F)(F)F)c2)c(C(C)C)c1 [A11, N-(3-(4-Aminobutoxy)-5-(trifluoromethyl)phenyl)-2,4,6-triisopropylbenzenesulfonamide] | 0.85 |  | 
COc1cc(NS(=O)(=O)c2c(C)cc(C(C)(C)C)cc2C)cc(C(F)(F)F)c1 [A17, 4-(Tert-butyl)-N-(3-methoxy-5-(trifluoromethyl)phenyl)-2,6-dimethylbenzenesulfonamide] | 0.46 |  | 
Cc1c(NS(=O)(=O)c2c(C(C)C)cc(C(C)C)cc2C(C)C)cc(C(F)(F)F)cc1C(F)(F)F [B4, N-(2-methyl-3,5-bis(trifluoromethyl)phenyl)-2,4,6-triisopropyl-benzene-sulfonamide] |  |  | Relative α-SMA (single agent 2 μM, normalized to tubulin, TGF-β alone = 1): 0.95; Relative α-SMA [1]: 0.69; Relative α-SMA [2]: 0.15
CCN(CC)c1cc(NS(=O)(=O)c2c(C(C)C)cc(C(C)C)cc2C(C)C)cc(C(F)(F)F)c1 [A8, N-(3-(Diethylamino)-5-(trifluoromethyl)phenyl)-2,4,6-triisopropylbenzenesulfonamide] | 0.88 | 0.33 | 
Cc1cc(C(C)(C)C)cc(C)c1S(=O)(=O)Nc1cc(C2CCN(C)CC2)cc(C(F)(F)F)c1 [A15, 4-(Tert-butyl)-2,6-dimethyl-N-(3-(1-methylpiperidin-4-yl)-5-(trifluoromethyl)-phenyl)benzenesulfonamide] | 0.31 |  | 
Cc1cc(C(C)(C)C)cc(C)c1S(=O)(=O)Nc1cc(C2CCNCC2)cc(C(F)(F)F)c1 [A22, 4-(Tert-butyl)-2,6-dimethyl-N-(3-(piperidin-4-yl)-5-(trifluoromethyl)phenyl)-benzenesulfonamide] | 0.21 | 0.12 | 
Cc1ccc(=O)n(-c2ccccc2)c1 [P, pirfenidone, reference compound] |  |  | Relative α-SMA (single agent 200 μM, TGF-β alone = 1): 1.29 and 1.02
CC(C)c1cc(C(C)C)c(S(=O)(=O)Nc2cc(C(=O)O)cc(C(F)(F)F)c2)c(C(C)C)c1 [A3, 3-(Trifluoromethyl)-5-((2,4,6-triisopropylphenyl)sulfonamido)benzoic acid] | 0.79 | 0.73 | 
Cc1cc(C(C)(C)C)cc(C)c1S(=O)(=O)Nc1cc(CCCN2CCOCC2)cc(C(F)(F)F)c1 [A14, 4-(Tert-butyl)-2,6-dimethyl-N-(3-(3-morpholinopropyl)-5-(trifluoromethyl)-phenyl)benzenesulfonamide] | 0.53 |  | 
CC(C)c1cc(C(C)C)c(S(=O)(=O)Nc2cc(NC(=O)OC(C)(C)C)cc(C(F)(F)F)c2)c(C(C)C)c1 [A5, Tert-butyl (3-(trifluoromethyl)-5-((2,4,6-triisopropylphenyl)sulfonamido)-phenyl)carbamate] | 0.95 | 0.21 | 
Cc1cc(C(C)(C)C)cc(C)c1S(=O)(=O)Nc1cc(OCCN(C)C)cc(C(F)(F)F)c1 [A12, 4-(Tert-butyl)-N-(3-(2-(dimethylamino)ethoxy)-5-(trifluoromethyl)phenyl)-2,6-dimethylbenzenesulfonamide] | 0.37 |  | 
Cc1cc(C(C)(C)C)cc(C)c1S(=O)(=O)Nc1cc(OCCCC#N)cc(C(F)(F)F)c1 [A9, 4-(Tert-butyl)-N-(3-(3-cyanopropoxy)-5-(trifluoromethyl)phenyl)-2,6-dimethylbenzenesulfonamide] | 1.05 | 0.78 | 
Cc1c(NS(=O)(=O)c2c(C(C)C)cc(C(C)C)cc2C(C)C)cc(O)cc1C(F)(F)F [A20, N-(5-Hydroxy-2-methyl-3-(trifluoromethyl)phenyl)-2,4,6-triisopropylbenzenesulfonamide] | 0.27 |  | 
